Legend:
[1] = target: T1, Vascular endothelial growth factor receptor 2 (Homo sapiens, UniProt P35968); experiment: Inhibition of VEGFR2 by HTRF assay
[2] = Intrinsic permeability across Caco-2 cell monolayers; conditions: human
[3] = target: T1, Vascular endothelial growth factor receptor 2; experiment: Inhibition of VEGFR2 by cell-based assay; assay type: functional
[4] = target: T2, Vascular endothelial growth factor receptor 1 (Homo sapiens, UniProt P17948); experiment: Inhibition of VEGFR1 by HTRF assay
Target sequence in this assay (P17948 whole entry, looked up): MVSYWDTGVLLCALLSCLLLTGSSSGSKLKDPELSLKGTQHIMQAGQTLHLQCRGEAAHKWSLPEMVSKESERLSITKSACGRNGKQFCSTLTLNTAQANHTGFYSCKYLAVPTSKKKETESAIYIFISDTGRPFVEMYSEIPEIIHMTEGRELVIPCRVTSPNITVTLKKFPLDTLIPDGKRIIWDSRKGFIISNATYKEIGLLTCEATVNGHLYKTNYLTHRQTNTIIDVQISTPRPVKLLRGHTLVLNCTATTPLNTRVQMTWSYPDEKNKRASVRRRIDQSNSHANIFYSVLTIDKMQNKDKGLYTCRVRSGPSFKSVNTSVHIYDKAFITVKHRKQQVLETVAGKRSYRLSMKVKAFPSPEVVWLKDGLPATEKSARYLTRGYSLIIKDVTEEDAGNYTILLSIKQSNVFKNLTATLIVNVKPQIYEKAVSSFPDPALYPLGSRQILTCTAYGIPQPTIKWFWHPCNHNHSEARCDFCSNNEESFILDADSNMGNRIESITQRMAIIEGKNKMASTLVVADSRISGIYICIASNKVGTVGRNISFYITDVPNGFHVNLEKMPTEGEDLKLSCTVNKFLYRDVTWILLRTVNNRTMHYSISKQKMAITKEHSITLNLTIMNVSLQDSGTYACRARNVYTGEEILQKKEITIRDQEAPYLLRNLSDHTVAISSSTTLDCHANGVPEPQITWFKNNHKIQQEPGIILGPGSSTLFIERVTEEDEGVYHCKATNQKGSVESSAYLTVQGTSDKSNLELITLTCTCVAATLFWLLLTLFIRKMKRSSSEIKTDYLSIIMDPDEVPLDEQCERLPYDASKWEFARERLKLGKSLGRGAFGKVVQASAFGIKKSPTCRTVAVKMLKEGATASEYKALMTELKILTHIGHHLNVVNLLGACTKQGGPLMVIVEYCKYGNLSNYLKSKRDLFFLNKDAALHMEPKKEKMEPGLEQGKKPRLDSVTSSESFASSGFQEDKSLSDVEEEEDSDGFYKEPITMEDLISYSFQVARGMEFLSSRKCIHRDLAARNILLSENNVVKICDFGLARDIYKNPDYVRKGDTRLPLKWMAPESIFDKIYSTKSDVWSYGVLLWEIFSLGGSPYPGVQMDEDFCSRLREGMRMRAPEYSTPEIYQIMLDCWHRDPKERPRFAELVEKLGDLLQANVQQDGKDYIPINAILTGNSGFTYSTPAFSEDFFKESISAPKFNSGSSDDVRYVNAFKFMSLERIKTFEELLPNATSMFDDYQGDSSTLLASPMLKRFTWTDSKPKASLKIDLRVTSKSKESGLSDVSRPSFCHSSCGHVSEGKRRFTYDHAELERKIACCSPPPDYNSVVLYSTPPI

[5] = target: T1, Vascular endothelial growth factor receptor 2; experiment: Inhibition of VEGFR2 by [32P]ATP-competitive radioassay
[6] = target: T1, Vascular endothelial growth factor receptor 2; experiment: Inhibition of VEGFR2 by HTRF assay
[7] = target: T2, Vascular endothelial growth factor receptor 1; experiment: Inhibition of VEGFR1 by HTRF assay
Target sequence in this assay (P17948 whole entry): as the sequence (P17948 whole entry, looked up) above

T1 sequence (P35968 whole entry): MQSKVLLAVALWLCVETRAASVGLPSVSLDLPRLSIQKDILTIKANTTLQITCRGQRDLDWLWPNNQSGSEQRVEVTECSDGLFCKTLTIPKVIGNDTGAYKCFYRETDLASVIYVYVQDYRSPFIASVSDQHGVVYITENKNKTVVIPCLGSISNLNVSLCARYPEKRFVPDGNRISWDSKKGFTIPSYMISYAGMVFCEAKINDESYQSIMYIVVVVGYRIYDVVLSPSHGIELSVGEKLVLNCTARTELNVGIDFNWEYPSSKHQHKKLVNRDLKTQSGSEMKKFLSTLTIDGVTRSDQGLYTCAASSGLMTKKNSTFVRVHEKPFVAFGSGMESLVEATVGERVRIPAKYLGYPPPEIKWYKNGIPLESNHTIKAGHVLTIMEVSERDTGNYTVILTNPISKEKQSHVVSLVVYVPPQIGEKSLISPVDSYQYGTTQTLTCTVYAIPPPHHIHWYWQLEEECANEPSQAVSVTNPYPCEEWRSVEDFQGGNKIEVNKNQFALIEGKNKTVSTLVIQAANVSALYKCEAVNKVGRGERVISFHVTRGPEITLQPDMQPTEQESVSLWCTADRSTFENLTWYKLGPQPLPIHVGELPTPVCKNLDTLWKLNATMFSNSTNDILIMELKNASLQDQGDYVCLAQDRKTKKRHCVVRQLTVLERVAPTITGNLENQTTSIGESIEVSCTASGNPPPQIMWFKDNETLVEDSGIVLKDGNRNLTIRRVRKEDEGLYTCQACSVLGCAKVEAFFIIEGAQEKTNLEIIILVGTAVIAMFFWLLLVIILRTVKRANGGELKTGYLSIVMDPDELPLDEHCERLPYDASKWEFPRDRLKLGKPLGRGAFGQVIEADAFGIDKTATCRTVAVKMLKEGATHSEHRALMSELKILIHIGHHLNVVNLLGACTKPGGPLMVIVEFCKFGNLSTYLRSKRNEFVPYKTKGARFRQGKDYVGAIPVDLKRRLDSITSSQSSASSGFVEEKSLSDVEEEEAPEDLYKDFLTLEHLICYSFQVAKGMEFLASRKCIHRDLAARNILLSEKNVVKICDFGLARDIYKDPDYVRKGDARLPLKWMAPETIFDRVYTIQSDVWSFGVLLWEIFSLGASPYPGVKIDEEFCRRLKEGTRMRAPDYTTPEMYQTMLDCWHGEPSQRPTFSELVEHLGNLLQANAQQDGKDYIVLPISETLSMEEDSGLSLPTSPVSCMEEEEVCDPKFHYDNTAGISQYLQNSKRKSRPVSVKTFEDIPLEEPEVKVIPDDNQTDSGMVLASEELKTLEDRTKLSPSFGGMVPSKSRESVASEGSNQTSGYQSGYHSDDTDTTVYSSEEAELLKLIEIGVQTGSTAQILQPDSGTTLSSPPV

IC50 [1] | Papp [2] | IC50 [3] | IC50 [4] | Ki [5] | IC50 [6] | IC50 [7] | SMILES
250 nM | 0.95 ×10⁻⁶ cm/s | 1650 nM | > 10000 nM | – | – | – | Cn1cnc(NCc2ccncc2)c1C(=O)Nc1ccc(Cl)cc1
180 nM | 6.2 ×10⁻⁶ cm/s | 75 nM | 270 nM | – | – | – | CC(C)c1ccc(NC(=O)c2c(NCc3ccncc3)ncn2C)cc1
370 nM | 7.03 ×10⁻⁶ cm/s | 96 nM | 550 nM | – | – | – | Cn1cnc(NCc2ccncc2)c1C(=O)Nc1ccc(Cl)c(Cl)c1
210 nM | 8.22 ×10⁻⁶ cm/s | 57 nM | 350 nM | – | – | – | COc1ccc(NC(=O)c2c(NCc3ccncc3)ncn2C)cc1OC
950 nM | 6.15 ×10⁻⁶ cm/s | 170 nM | 1260 nM | – | – | – | Cn1cnc(NCc2ccncc2)c1C(=O)Nc1ccc(Cl)c(C(F)(F)F)c1
210 nM | 7.1 ×10⁻⁶ cm/s | 64 nM | 510 nM | 160 nM | – | – | Cc1cc(NC(=O)c2c(NCc3ccncc3)ncn2C)ccc1C(F)(F)F
– | – | > 10000 nM | – | – | > 10000 nM | 5290 nM | Cn1ncc(NCc2ccc3c(c2)OCO3)c1C(=O)Nc1cccc(C(F)(F)F)c1
330 nM | 5.52 ×10⁻⁶ cm/s | 69 nM | 560 nM | – | – | – | Cc1cc(NC(=O)c2c(NCc3ccncc3)cnn2C)ccc1C(F)(F)F
– | – | > 10000 nM | – | – | 3120 nM | 2270 nM | Cn1cnc(NCc2ccc3c(c2)OCO3)c1C(=O)Nc1cccc(C(F)(F)F)c1
– | – | > 10000 nM | – | – | 2550 nM | 1680 nM | Cn1cnc(NCc2ccc3c(c2)OCO3)c1C(=O)Nc1ccc(C(F)(F)F)cc1
250 nM | 6.73 ×10⁻⁶ cm/s | 82 nM | 360 nM | – | – | – | Cn1ncc(NCc2ccncc2)c1C(=O)Nc1ccc(Cl)c(Cl)c1
87 nM | 7.55 ×10⁻⁶ cm/s | 64 nM | 110 nM | 200 nM | – | – | Cn1cnc(NCc2ccncc2)c1C(=O)Nc1ccc(C(C)(C)C)cc1
290 nM | 3.6 ×10⁻⁶ cm/s | 88 nM | 350 nM | – | – | – | Cn1cnc(NCc2ccncc2)c1C(=O)Nc1ccc(C(F)(F)F)c(Cl)c1
340 nM | 5.93 ×10⁻⁶ cm/s | – | 610 nM | – | – | – | Cc1ccc(NC(=O)c2c(NCc3ccncc3)ncn2C)cc1C(F)(F)F
730 nM | 5.42 ×10⁻⁶ cm/s | 64 nM | 1870 nM | 170 nM | – | – | Cn1ncc(NCc2ccncc2)c1C(=O)Nc1ccc(OC(F)(F)F)cc1
130 nM | 6.25 ×10⁻⁶ cm/s | 45 nM | 180 nM | – | – | – | Cn1ncc(NCc2ccncc2)c1C(=O)Nc1ccc(C(C)(C)C)cc1

Source: ChEMBL document CHEMBL1139078, “ortho-Substituted azoles as selective and dual inhibitors of VEGF receptors 1 and 2” (Bioorg Med Chem Lett, 2007)
